Laboratory results as given in PMC5808360, “Neutral Porphyrin Derivative Exerts Anticancer Activity by Targeting Cellular Topoisomerase I (Top1) and Promotes Apoptotic Cell Death without Stabilizing Top1-DNA Cleavage Complexes” (Journal of Medicinal Chemistry, 2017).
Peptide text beside a SMILES is read from it. * marks the point of attachment. Cbz = O=C(OCc1ccccc1)*

Tests used:
[1] = test system: relaxed pBS (SK+) plasmid DNA; experiment: Topoisomerase I unwinding assay (DNA intercalation); details: m-AMSA and etoposide 50 and 300 μM; compound 8 50, 100, 300 μM
Method: Therefore, compound 8 interacts in reversible manner with Top1 to inhibit the plasmid relaxation activity (Figure 1).
The competence of the drug to intercalate into plasmid DNA was determined by Top1 unwinding assay.[36],[44] Assays were performed with 50 fmol of pBluscript (SK+) DNA in the presence or absence of compound 8, m-AMSA, and etoposide at indicated concentrations. Excess of DNA topoisomerase I was reacted with supercoiled plasmid DNA to generate relaxed DNA for the unwinding assays. The relaxed DNA was purified by proteolytic digestion with proteinase K at 37 °C, followed by phenol/chloroform extraction and ethanol precipitation. The unwinding assays were carried out at 37 °C for 15 min with independent compounds and were analyzed by 1% agarose gel as described above.

[2] = target: T1, cellular Top1 in MCF7 cells (Homo sapiens, UniProt P11387); experiment: Western blot of Top1 in whole cell extracts of treated MCF7 cells; type: cell-based; details: MG132 100 nM preincubated 4 h, then compound 8 10 μM 12 h
T1 construct: endogenous in cells; host or cells: MCF7 cells
T1 sequence (P11387 2-765 limits assumed): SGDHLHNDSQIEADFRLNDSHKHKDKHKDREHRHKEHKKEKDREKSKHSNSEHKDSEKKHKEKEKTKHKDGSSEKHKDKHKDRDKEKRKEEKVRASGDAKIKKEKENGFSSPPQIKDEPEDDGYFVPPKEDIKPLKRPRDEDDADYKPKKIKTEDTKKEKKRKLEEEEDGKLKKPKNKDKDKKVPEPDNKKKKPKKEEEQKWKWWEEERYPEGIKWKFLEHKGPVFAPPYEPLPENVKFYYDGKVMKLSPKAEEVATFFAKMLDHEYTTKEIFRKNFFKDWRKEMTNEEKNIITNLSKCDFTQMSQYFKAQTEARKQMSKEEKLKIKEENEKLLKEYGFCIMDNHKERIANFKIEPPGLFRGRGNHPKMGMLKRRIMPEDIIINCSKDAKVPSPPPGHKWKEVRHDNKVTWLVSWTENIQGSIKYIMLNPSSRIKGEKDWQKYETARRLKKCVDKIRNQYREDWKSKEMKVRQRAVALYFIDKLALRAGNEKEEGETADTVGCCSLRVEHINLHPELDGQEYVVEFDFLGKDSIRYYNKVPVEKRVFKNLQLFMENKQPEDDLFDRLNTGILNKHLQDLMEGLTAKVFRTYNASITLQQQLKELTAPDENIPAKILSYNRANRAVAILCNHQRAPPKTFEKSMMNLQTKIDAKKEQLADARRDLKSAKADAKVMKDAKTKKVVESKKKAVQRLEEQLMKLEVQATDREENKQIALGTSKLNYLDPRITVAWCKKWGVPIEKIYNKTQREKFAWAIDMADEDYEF
Method: Because compound 8 binds with free Top1 (Figure 3) and inhibits Top1cc formation in live cells (Figure 2E), we examined the impact of compound 8 on endogenous Top1. Cellular lysates were prepared from MCF7 cells treated with compound 8 for indicated times and were analyzed by Western blotting. […] Because proteasome has been implicated for Top1 degradation,[7],[9],[45] we used proteasome specific inhibitor (MG132) to investigate Top1 proteolysis in compound 8 treated cells.
Preparation of whole cell extracts from MCF7 cells and immunoblotting were carried out as described.[6],[40],[41] Immunoreactivity was detected using ECL chemiluminescence reaction (Amersham) under ChemiDoc MP system (Bio-Rad, USA).

[3] = target: T2, EGFP-human Top1 in MCF7 cells (Homo sapiens, UniProt P11387); experiment: FRAP of EGFP-Top1 in live MCF7 cells; type: cell-based; details: 5 μM, 10 min
T2 construct: expressed in transfected cells; host or cells: MCF7 cells, transient transfection (Lipofectamine 2000)
T2 sequence (P11387 1-765): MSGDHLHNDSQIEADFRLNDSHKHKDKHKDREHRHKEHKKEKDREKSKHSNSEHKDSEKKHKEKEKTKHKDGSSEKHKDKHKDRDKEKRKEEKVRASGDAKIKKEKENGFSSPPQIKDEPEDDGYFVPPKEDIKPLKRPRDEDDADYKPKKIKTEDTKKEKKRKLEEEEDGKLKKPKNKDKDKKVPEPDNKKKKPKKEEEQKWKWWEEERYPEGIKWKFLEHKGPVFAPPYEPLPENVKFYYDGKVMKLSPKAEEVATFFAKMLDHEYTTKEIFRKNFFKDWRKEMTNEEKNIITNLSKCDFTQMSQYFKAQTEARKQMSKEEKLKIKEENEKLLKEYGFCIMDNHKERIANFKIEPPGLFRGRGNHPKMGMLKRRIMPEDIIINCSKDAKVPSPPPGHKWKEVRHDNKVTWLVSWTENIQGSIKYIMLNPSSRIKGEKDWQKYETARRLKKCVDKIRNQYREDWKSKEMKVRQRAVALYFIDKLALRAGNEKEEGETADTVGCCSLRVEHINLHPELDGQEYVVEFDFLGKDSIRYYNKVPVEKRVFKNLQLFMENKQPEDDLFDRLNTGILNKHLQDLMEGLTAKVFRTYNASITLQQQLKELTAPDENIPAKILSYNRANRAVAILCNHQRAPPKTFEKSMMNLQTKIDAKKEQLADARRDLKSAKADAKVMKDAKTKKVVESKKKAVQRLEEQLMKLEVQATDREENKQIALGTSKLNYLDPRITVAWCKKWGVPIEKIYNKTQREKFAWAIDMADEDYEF
Method: To obtain direct evidence for compound 8 mediated inhibition of Top1cc formation in live human carcinoma cells, we used MCF7 cells and transiently expressed EGFP-Top1. Live cells expressing ectopic Top1 were analyzed under laser confocal microscopy equipped with fluorescence recovery after photobleaching (FRAP) technology.[40]−[42]
Photobleaching experiments were performed as described formerly[40]−[42] using Andor Spining disk inverted confocal laser-scanning microscope equipped with a 60×/1.42 NA oil-immersion objective (Olympus) and with a CO2-controlled on-stage heated environmental chamber set to 37 °C. FRAP analyses were carried out with living MCF7 cells ectopically expressing EGFP-human Top1 grown on chamber cover glass (Genetix, India) and drug treated as indicated. For FRAP analysis, a subnuclear spot was bleached for 30 ms by solid-state laser line (488 nm for EGFP) adapted to the fluorescent protein of interest and FRAP curves were generated individually normalized to the prebleach signal as described previously.[42]

MCF7 cells [4] = experiment: Alkaline comet assay; type: cell-based, human; details: NAC 10 mM pretreatment 30 min before compound 8
Text: Therefore, we directly measured compound 8 induced DNA strand breaks at single cellular level by using alkaline comet assays (Figure 5B,C) and simultaneously measured the apoptotic cell death by immunofluorescence staining of the apoptosis marker phosphatidylserine with annexin V-FITC antibody (Figure 5D,E). Compound 8 treated MCF7 cells accumulate ∼8-fold increase in DNA strand breaks (Figure 5B and Figure 5C) compared to untreated cells, resulting in ∼7-fold elevation in compound 8 induced annexin V(+) apoptotic cells (Figure 5D and Figure 5E). […] Therefore, we conclude that compound 8 triggers reactive oxygen species induced DNA degradation and apoptotic cell death without stabilizing Top1-DNA cleavage complexes.
To detect the levels of drug-induced DNA breaks, after treatment MCF7 cells were subjected to alkaline comet assays according to the manufacturer’s instructions (Trevigen, USA) and comet length was measured and was scored for at least 50 cells. Distributions of comet lengths were compared using the Student’s t-test as described previously.[13],[40],[50]

MCF7 cells [5] = experiment: Measurement of intracellular ROS (H2DCFDA); type: cell-based, human; details: NAC 10 mM pretreatment 30 min before compound 8 10 μM
Text: Next, to investigate the mechanistic link between compound 8 induced cellular Top1 inhibition (Figure 1), degradation (Figure 4A and Figure 4B), and activation of apoptosis (Figure 4C), we tested reactive oxygen species (ROS) formation and accumulation of oxidative DNA fragmentation[15],[17],[46] in compound 8 treated MCF7 cells. […] We observed a marked elevation (∼3- to 5-fold) in ROS accumulation (Figure 5A) under similar conditions that activate PARP1 cleavage (Figure 4C). Nonetheless, MCF7 cells pretreated with N-acetylcysteine (NAC), a specific inhibitor of ROS, reduced compound 8 induced ROS generation by ∼3-fold (Figure 5A).
Intracellular ROS was detected in drug-treated MCF7 cells with or without pretreatment of N-acetyl-L-cysteine (NAC) for indicated time as described.[13],[46] Briefly, cells were washed and resuspended in 500 μL of 1× PBS and were loaded with 2 μg/mL of H2DCFDA (Molecular Probes) for 30 min, and green fluorescence of 2,7-dichlorofluorescein was measured at 515 nm by spectrofluorometer.

## COc1cc(NS(C)(=O)=O)ccc1Nc1c2ccccc2nc2ccccc12 [m-AMSA]
[1]
  Negative supercoiling of relaxed plasmid DNA (intercalation): incites a net negative supercoiling of the relaxed plasmid DNA

## CC(C)C[C@@H](C=O)NC(=O)[C@H](CC(C)C)NC(=O)[C@H](CC(C)C)NC(=O)OCc1ccccc1 [MG132, reference compound] (Cbz-Leu-Leu-Leu-aldehyde)
[2]
  Effect on 8-induced degradation of Top1: abrogated

## CC[C@@]1(O)C(=O)OCc2c1cc1n(c2=O)Cc2cc3ccccc3nc2-1 [CPT, Camptothecin, reference compound]
[3]
  Increase of Top1 immobile population (FRAP): 40–50%

## COc1cc([C@@H]2c3cc4c(cc3[C@@H](O[C@@H]3O[C@@H]5CO[C@@H](C)O[C@H]5[C@H](O)[C@H]3O)[C@H]3COC(=O)[C@H]23)OCO4)cc(OC)c1O [etoposide]
[1]
  Negative supercoiling of relaxed plasmid DNA (intercalation): failed to show such effect

## CC(=O)N[C@@H](CS)C(=O)O [NAC, N-acetyl-L-cysteine]
MCF7 cells [4]
  Decrease in compound 8 induced DNA breaks: ~4 fold
MCF7 cells [5]
  Reduction of compound 8 induced ROS generation: ~3 fold
